Laboratory results: patent US8273775B2, “Non-steroidal brassinosteroid mimetic” (priority 2006, dated 2012)

System: gene expression in Col-0 seedling shoots
Assay: Microarray analysis (ATH1 Affymetrix) after BL or abrasin treatment
Type: in vivo, Arabidopsis
Conditions: 30 min
Experimental: FIG. 14: Clustering of gene expression profiles by QT-clust analysis. Clusters illustrating the major patterns of the data sets. Points: BIK-30: 30 μM abrasin 30 min; BL-30: 1 μM brassinolide 30 min; DMSO-30: control DMSO 30 min; BIK-120: 30 μM abrasin 120 min; BL-120: 1 μM brassinolide 120 min; DMSO-120: control DMSO 120 min.
Col-0 seeds were germinated vertically on ½ MS medium for 7 days under 16 h light/8 h dark cycles. The seedlings were overlaid with liquid ½ MS medium containing 1 μM brassinolide (BL, Fuji Chemical Industries, Ltd., Toyama, Japan), 30 μM abrasin (BIK, ChemBridge Corporation) and DMSO and treated for 30 and 120 min. The shoot parts were collected for RNA isolation. All sampling points were performed in three independent experiments. RNA was extracted using RNeasy kit (Qiagene). […] total RNA per array was used to hybridise the ATH1 Affymetrix Arabidopsis arrays according to standard procedure. The overrepresentation analyses were performed using BiNGO software (Maere et al., 2005).
We performed a microarray analysis using the Arabidopsis whole genome chip (Affymetix) to determine whether abrasin activated the expression of BR-inducible genes at transcriptional level. Wild-type Col-0 seedlings were exposed to 1 μM BL, 30 μM ABRASIN and DMSO (mock-treatment) for two time points (30 min and 120 min) and the shoot parts were collected for RNA isolation. The analysis of the variance of the normalized gene expression data took in account the variability parameters affecting the expression level: type of hormone treatment, duration of treatment and the interaction between these two.

SMILES: CC(C)[C@H](C)[C@@H](O)[C@H](O)[C@@H](C)[C@H]1CC[C@H]2[C@@H]3COC(=O)[C@H]4C[C@H](O)[C@H](O)C[C@]4(C)[C@H]3CC[C@]12C [BL, brassinolide, reference compound]
- Fold-change AT4G16563 aspartyl protease family protein: 1.44
- Fold-change AT4G16670 expressed protein: 0.78
- Fold-change AT4G16780 homeobox-leucine zipper protein 4 (HAT4)/HD-ZIP protein: 0.62
- Fold-change AT4G17250 expressed protein: 0.86
- Fold-change AT4G17460 homeobox-leucine zipper protein 1 (HAT1)/HD-ZIP protein 1: 0.54
- Fold-change AT4G21510 F-box family protein: 1.47
- Fold-change AT4G23030 MATE efflux protein-related: 1.37
- Fold-change AT4G23070 rhomboid family protein: 1.02
- Fold-change AT4G23810 WRKY family transcription factor: 0.71
- Fold-change AT4G24160 hydrolase, alpha/beta fold family protein: 1.13
- Fold-change AT4G25620 hydroxyproline-rich glycoprotein family protein: 0.87
- Fold-change AT4G25780 pathogenesis-related protein: 0.74
- Fold-change AT4G27970 C4-dicarboxylate transporter/malic acid transport family protein: 1.20
- Fold-change AT4G28240 wound-responsive protein-related: 0.77
- Fold-change AT4G28490 leucine-rich repeat transmembrane protein kinase, putative: 1.00
- Fold-change AT4G28703 expressed protein: 0.85
- Fold-change AT4G28780 GDSL-motif lipase/hydrolase family protein: 1.25
- Fold-change AT4G29070 expressed protein: 0.90
- Fold-change AT4G30080 transcriptional factor B3 family protein: 0.94
- Fold-change AT4G31020 expressed protein: 1.53
- Fold-change AT4G32280 auxin-responsive AUX/IAA family protein (IAA29): 0.66
- Fold-change AT4G33050 calmodulin-binding family protein: 0.99
- Fold-change AT4G33700 CBS domain-containing protein: 0.81
- Fold-change AT4G34610 homeodomain-containing protein: 0.86
- Fold-change AT4G36110 auxin-responsive protein: 2.35
- Fold-change AT4G36780 brassinosteroid signalling positive regulator-related: 0.71
- Fold-change AT4G37240 expressed protein: 1.23
- Fold-change AT4G37290 expressed protein: 0.90
- Fold-change AT4G37590 phototropic-responsive NPH3 family protein: 0.90
- Fold-change AT4G38840 auxin-responsive protein (SAUR14): 1.26
- Fold-change AT4G38850 auxin-responsive protein (SAUR-AC1): 1.43
- Fold-change AT4G38860 auxin-responsive protein (SAUR16): 1.38
- Fold-change AT4G39400 brassinosteroid insensitive 1 (BRI1): 0.96
- Fold-change AT5G02020 expressed protein: 0.99
- Fold-change AT5G05690 cytochrome P450 90A1 (CYP90A1) (CYP90) (CPD): 0.93
- Fold-change AT5G07690 myb family transcription factor (MYB29): 0.82
- Fold-change AT5G08130 basic helix-loop-helix (bHLH) family protein (BIM2): 0.79
- Fold-change AT5G12050 expressed protein: 0.73
- Fold-change AT5G13180 no apical meristem (NAM) family protein: 1.07
- Fold-change AT5G13740 sugar transporter family protein: 0.77
- Fold-change AT5G14730 expressed protein: 0.80
- Fold-change AT5G16200 50S ribosomal protein-related: 0.70
- Fold-change AT5G16980 NADP-dependent oxidoreductase: 1.15
- Fold-change AT5G18750 DNAJ heat shock N-terminal domain-containing protein: 1.03
- Fold-change AT5G19200 short-chain dehydrogenase/reductase (SDR) family protein: 1.22
- Fold-change AT5G19340 expressed protein: 0.68
- Fold-change AT5G24030 C4-dicarboxylate transporter/malic acid transport family protein: 1.43
- Fold-change AT5G24660 expressed protein: 1.33
- Fold-change AT5G25240 expressed protein: 1.21
- Fold-change AT5G25930 leucine-rich repeat family protein: 0.98
- Fold-change AT5G27350 sugar-porter family protein 1 (SFP1): 1.11
- Fold-change AT5G27670 histone H2A: 0.86
- Fold-change AT5G38310 expressed protein: 0.98
- Fold-change AT5G38990; AT5G39000 [AT5G38990, protein kinase family protein: 0.94
- Fold-change AT5G39050 transferase family protein: 1.35
- Fold-change AT5G39610 no apical meristem (NAM) family protein: 0.65
- Fold-change AT5G39970 expressed protein: 1.08
- Fold-change AT5G42830 transferase family protein: 0.87
- Fold-change AT5G47370 homeobox-leucine zipper protein 2 (HAT2): 0.94
- Fold-change AT5G48070 putative xyloglucan endotransglycosylase/hydrolase: 1.12
- Fold-change AT5G48540 33 kDa secretory protein-related: 1.01
- Fold-change AT5G51550 phosphate-responsive 1 family protein: 0.86
- Fold-change AT5G54490 calcium-binding EF-hand protein, putative: 0.37
- Fold-change AT5G54860 integral membrane transporter family protein: 0.92
- Fold-change AT5G55970 zinc finger (C3HC4-type RING finger) family protein: 1.03
- Fold-change AT5G56980 expressed protein: 0.75
- Fold-change AT5G57190 phosphatidylserine decarboxylase: 1.04
- Fold-change AT5G57780 expressed protein: 0.41
- Fold-change AT5G59080 expressed protein: 0.62
- Fold-change AT5G60200 Dof-type zinc finger domain-containing protein: 0.82
- Fold-change AT5G60270 lectin protein kinase family protein: 1.03
- Fold-change AT5G60630 expressed protein: 0.94
- Fold-change AT5G61600 encodes a member of the ERF (ethylene response factor): 0.46
- Fold-change AT5G62360 invertase/pectin methylesterase inhibitor family protein: 0.92
- Fold-change AT5G65310 homeobox-leucine zipper protein 5 (HB-5)/HD-ZIP transcription factor 5: 0.91
- Fold-change AT5G66420 expressed protein: 1.04
- Fold-change AT5G66590 allergen V5/Tpx-1-related family protein: 1.21
- Fold-change AT5G67450 zinc finger (C2H2 type) protein 1 (AZF1): 1.79
- Fold-change of gene AT4G16140 (proline-rich family protein) (245479_at, Cluster 6): 0.83
- Fold-change of gene AT4G15260 (UDP-glucoronosyl/UDP-glucosyl transferase family protein) (245543_at, Cluster 7): 1.01
- Fold-change of gene AT5G09440 (phosphate-responsive protein, putative) (245885_at, Cluster 5): 0.58
- Fold-change of gene AT1G77380 (amino acid carrier) (246389_at, Cluster 10): 0.94
- Fold-change of gene AT5G15740 (expressed protein) (246516_at, Cluster 5): 0.95
- Fold-change of gene AT5G65300 (expressed protein) (247177_at, Cluster 5): 0.25
- Fold-change of gene AT5G64890 (expressed protein) (247205_at, Cluster 10): 0.97
- Fold-change of gene AT5G63790 (no apical meristem (NAM) family protein) (247351_at, Cluster 9): 0.49
- Fold-change of gene AT5G62630 (expressed protein) (247444_at, Cluster 7): 1.26
- Fold-change of gene AT5G60850 (Dof-type zinc finger domain-containing protein) (247601_at, Cluster 10): 1.09
- Fold-change of gene AT5G59510 (expressed protein) (247704_at, Cluster 9): 0.98
- Fold-change of gene AT5G58660 (oxidoreductase. 2OG-Fe(II) oxygenase family protein) (247774_at, Cluster 5): 1.08
- Fold-change of gene AT5G54120 (expressed protein) (248190_at, Cluster 5): 1.04
- Fold-change of gene AT5G54130 (calcium-binding EF hand family protein) (248191_at, Cluster 5): 1.03
- Fold-change of gene AT5G52900 (expressed protein) (248282_at, Cluster 6): 0.74
- Fold-change of gene AT5G49100 (expressed protein) (248646_at, Cluster 9): 0.70
- Fold-change of gene AT5G18060 (auxin-responsive protein) (250012_x_at, Cluster 6): 0.76
- Fold-change of gene AT5G09800 (U-box domain-containing protein) (250493_at, Cluster 9): 0.80
- Fold-change of gene AT5G08565 (expressed protein) (250537_at, Cluster 8): 1.06
- Fold-change of gene AT5G03670 (expressed protein) (250907_at, Cluster 5): 0.60
- Fold-change of gene AT5G01740 (expressed protein) (251072_at, Cluster 5): 0.53
- Fold-change of gene AT3G63380 (calcium-transporting ATPase) (251176_at, Cluster 10): 0.87
- Fold-change of gene AT3G60690 (auxin-responsive family protein) (251342_at, Cluster 9): 0.87
- Fold-change of gene AT3G45610 (Dof-type zinc finger domain) (252586_at, Cluster 10): 0.90
- Fold-change of gene AT3G44610 (protein kinase family protein) (252646_at, Cluster 5): 1.05
- Fold-change of gene AT4G34760 (auxin-responsive family protein) (253255_at, Cluster 6): 0.81
- Fold-change of gene AT4G34138 (UDP-glucoronosyl/UDP-glucosyl transferase family protein) (253281_at, Cluster 7): 1.17
- Fold-change of gene AT4G31910 (transferase family protein) (253483_at, Cluster 5): 1.15
- Fold-change of gene AT4G30410 (expressed protein) (253617_at, Cluster 5): 0.97
- Fold-change of gene AT4G30450 (glycine-rich protein) (253629_at, Cluster 5): 0.88
- Fold-change of gene AT4G26200 (1-aminocyclopropane-1-carboxylate synthase) (253999_at, Cluster 9): 0.29
- Fold-change of gene AT4G03400 (auxin-responsive GH3 family protein) (255403_at, Cluster 6): 0.59
- Fold-change of gene AT4G02700 (sulfate transporter) (255443_at, Cluster 7): 1.69
- Fold-change of gene AT1G22190 (AP2 domain-containing transcription factor) (255926_at, Cluster 8): 0.83
- Fold-change of gene AT1G66140 (zinc finger (C2H2 type) family protein) (256528_at, Cluster 6): 0.72
- Fold-change of gene AT3G25655 (expressed protein) (256762_at, Cluster 8): 0.98
- Fold-change of gene AT3G21420 (oxidoreductase, 2OG-Fe(II) oxygenase family protein) (256818_at, Cluster 7): 1.11
- Fold-change of gene AT3G18280 (protease inhibitor/seed storage/lipid transfer protein) (257066_at, Cluster 5): 1.06
- Fold-change of gene AT1G29440 (auxin-responsive family protein) (257506_at, Cluster 6): 0.69
- Fold-change of gene AT3G29200 (chorismate mutase, chloroplast (CM1)) (257746_at, Cluster 5): 0.89
- Fold-change of gene AT1G13260 (DNA-binding protein RAV1 (RAV1)) (259364_at, Cluster 8): 0.61
- Fold-change of gene AT1G29500 (auxin-responsive protein) (259773_at, Cluster 6): 0.79
- Fold-change of gene AT1G29510 (auxin-responsive protein) (259783_at, Cluster 6): 0.77
- Fold-change of gene AT1G29450 (auxin-responsive protein) (259784_at, Cluster 6): 0.75
- Fold-change of gene AT1G29460 (auxin-responsive protein) (259787_at, Cluster 6): 0.75
- Fold-change of gene AT1G76690; AT1G76680 ([AT1G76690, 12-oxophytodienoate reductase (OPR2)) (259875_s_at, Cluster 7): 0.85
- Fold-change of gene AT1G76620 (expressed protein) (259985_at, Cluster 8): 0.94
- Fold-change of gene AT1G63720 (expressed protein) (260243_at, Cluster 10): 0.74
- Fold-change of gene AT1G48100 (glycoside hydrolase family 28 protein) (260727_at, Cluster 8): 1.06
- Fold-change of gene AT1G12200 (flavin-containing monooxygenase family protein) (261023_at, Cluster 7): 1.11
- Fold-change of gene AT1G12845 (expressed protein) (261203_at, Cluster 6): 0.98
- Fold-change of gene AT1G15550 (gibberellin 3-beta-dioxygenase) (261768_at, Cluster 6): 0.77
- Fold-change of gene AT1G80840 (WRKY family transcription factor) (261892_at, Cluster 9): 0.27
- Fold-change of gene AT1G80080 (leucine-rich repeat family protein) (262040_at, Cluster 6): 0.77
- Fold-change of gene AT1G80130 (expressed protein) (262050_at, Cluster 8): 1.04
- Fold-change of gene AT1G21680 (expressed protein) (262505_at, Cluster 10): 1.12
- Fold-change of gene AT1G34245 (expressed protein) (262543_at, Cluster 6): 1.14
- Fold-change of gene AT1G78460 (SOUL heme-binding family protein) (263126_at, Cluster 7): 0.88
- Fold-change of gene AT1G78820; AT1G78830 ([AT1G78820, curculin-like (mannose-binding) lectin family protein) (264279_s_at, Cluster 7): 0.88
